The values that follow are results of earlier work, collected in patent US20140213664A1, “PROCESSES, PRODUCTS AND METHODOLOGIES FOR MAKING AND USING NOVEL BIOADVANTAGED SWEETENERS” (priority 2013, published 2014).

Molecules are shown by their SMILES.

For data set [1] the following is noted: injected hypodermically.
Data set [2] concerns STZ-induced diabetic rats.

As to `O=C(CCc1ccc(O)cc1)c1c(O)cc(O)cc1O[C@@H]1O[C@H](CO)[C@@H](O)[C@H](O)[C@H]1O` [Phlorizin], in data set [1], the glycosuria result is on record as “produces glycosuria”.

For the compound `O=CC=Cc1ccccc1` [Cinnamaldehyde], in data set [2], the HDL-cholesterol result is recorded as “increasing”; the antihyperglycemic effect entry was “significant antihyperglycemic effect”; the “total cholesterol and triglyceride levels” value is “lowering”.
